According to PubChem BioAssay AID687022 (Broad Institute, 2013):
Active and inactive are the calls of the source.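 How the source made its calls: active means Fitted curve of melting temperature shift crosses the 1.0 threshold at or below the sample's highest valid tested concentration; inconclusive means Flat fit with activity 30 to 70, or invalid fit; inactive means Opposite direction, flat within 30, or no crossing.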

Molecular target: Fibroblast growth factor 22 (Homo sapiens) (UniProt Q9HCT0)
Experiment: FGF22 ligand-induced thermal stabilization – biophysical, thermal shift, cherry-pick, FGF22 synaptogenesis inhibitor project, dose response (AID 687022)
Settings: recombinant FGF22 thermal shift, SYPRO orange melting

Chain of Fibroblast growth factor 22 (Homo sapiens) (Q9HCT0 whole entry, looked up): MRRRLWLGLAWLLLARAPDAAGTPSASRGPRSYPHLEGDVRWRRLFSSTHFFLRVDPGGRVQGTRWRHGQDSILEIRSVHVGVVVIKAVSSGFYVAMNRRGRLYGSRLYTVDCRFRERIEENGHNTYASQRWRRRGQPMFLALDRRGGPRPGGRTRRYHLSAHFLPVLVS

## O=C(NCC1CCOCC1)c1ccc2nc(Cc3cccc(Cl)c3)oc2c1
  AbsAC1 (concentration giving Tm-shift threshold 1.0): 6.43 µM

## CN(NC1OC(=O)c2ccccc21)c1ncc(C(F)(F)F)cc1Cl (centres undefined)
  AbsAC1 (concentration giving Tm-shift threshold 1.0): 29.3 µM

## COc1ccc([N+](=O)[O-])cc1/C=N/Nc1nn[nH]n1
  AbsAC1 (concentration giving Tm-shift threshold 1.0): 6.12 µM

## Nc1nonc1N/N=C\c1ccccc1
  AbsAC1 (concentration giving Tm-shift threshold 1.0): 4.88 µM

## CC(C)CCNC(=O)c1onc(CSc2ccncc2)c1C(=O)NCCC(C)C
  AbsAC1 (concentration giving Tm-shift threshold 1.0): 3.89 µM

## C/C=C/c1ccc2c(c1)O[C@@H](CN(C)C(=O)Nc1cccc(F)c1)[C@@H](C)CN([C@@H](C)CO)S2(=O)=O
  AbsAC1 (concentration giving Tm-shift threshold 1.0): 7.47 µM

## O=C(Nc1cccnc1)c1ccc(NS(=O)(=O)c2cccc([N+](=O)[O-])c2)cc1
  AbsAC1 (concentration giving Tm-shift threshold 1.0): 8.48 µM

## Nc1ccccc1N=Nc1ccccc1N
  AbsAC1 (concentration giving Tm-shift threshold 1.0): 7.75 µM

## C[C@@H]1CN([C@@H](C)CO)S(=O)(=O)c2ccc(-c3ccncc3)cc2O[C@@H]1CN(C)C(=O)Nc1ccc(F)cc1
  AbsAC1 (concentration giving Tm-shift threshold 1.0): 4.72 µM

## CC(C)C#Cc1cnc2c(c1)C(=O)N([C@@H](C)CO)C[C@@H](C)[C@H](CN(C)C(=O)c1cnccn1)O2
  AbsAC1 (concentration giving Tm-shift threshold 1.0): > 38 µM (inactive)

## C[C@@H]1CN([C@@H](C)CO)C(=O)c2cc(NC(=O)Nc3ccc(C(F)(F)F)cc3)ccc2O[C@@H]1CN(C)Cc1ccc(C(=O)O)cc1
  AbsAC1 (concentration giving Tm-shift threshold 1.0): 18.1 µM

## O=[N+]([O-])c1ccc(Nc2cccc(F)c2)nc1
  AbsAC1 (concentration giving Tm-shift threshold 1.0): 3.78 µM

## O=C(CCc1c[nH]c2ccccc12)Nc1ccc(Nc2cccnc2)cc1
  AbsAC1 (concentration giving Tm-shift threshold 1.0): 4.36 µM

## CCc1ccc(N2CC(C(=O)OCC(=O)Nc3ccc(C#N)cc3)CC2=O)cc1 (centres undefined)
  AbsAC1 (concentration giving Tm-shift threshold 1.0): 20.8 µM

## Cc1ccccc1S(=O)(=O)NCC[C@@H]1CC[C@@H](NC(=O)Nc2cccc(Cl)c2)[C@@H](CO)O1
  AbsAC1 (concentration giving Tm-shift threshold 1.0): 8.07 µM

## COc1ccc(C(=O)N2CCCCC2)cc1S(=O)(=O)Nc1cccc(C(=O)O)c1
  AbsAC1 (concentration giving Tm-shift threshold 1.0): 9.12 µM

## C[C@H]1CN([C@@H](C)CO)S(=O)(=O)c2ccc(C3=CCCC3)cc2O[C@H]1CN(C)C(=O)Nc1ccc2c(c1)OCO2
  AbsAC1 (concentration giving Tm-shift threshold 1.0): 22.9 µM

## CCc1nnc(NS(=O)(=O)c2ccc(NC(=S)NC(=O)/C=C/c3ccc([N+](=O)[O-])cc3)cc2)s1
  AbsAC1 (concentration giving Tm-shift threshold 1.0): 4.73 µM

## C[C@@H]1CN([C@@H](C)CO)S(=O)(=O)c2ccc(-c3cccc(C#N)c3)cc2O[C@@H]1CN(C)C(=O)Nc1cc(F)ccc1F
  AbsAC1 (concentration giving Tm-shift threshold 1.0): > 38 µM (inactive)

## CCOC(=O)c1c(C)[nH]c(C)c1C(=O)COC(=O)/C=C/c1ccccc1[N+](=O)[O-]
  AbsAC1 (concentration giving Tm-shift threshold 1.0): 23.9 µM

## CN1C(=O)c2cc(NC(=O)c3cccc(F)c3)ccc2OC[C@H]2O[C@@H](CC(=O)N3CCc4ccccc4C3)CC[C@H]21
  AbsAC1 (concentration giving Tm-shift threshold 1.0): 18.4 µM

## COc1ccc2c(/C=N/NS(=O)(=O)c3ccc(C)cc3)c[nH]c2c1
  AbsAC1 (concentration giving Tm-shift threshold 1.0): 9.87 µM

## COc1ccc2c(CC(=O)NNC(=O)c3ccc(O)cc3)coc2c1
  AbsAC1 (concentration giving Tm-shift threshold 1.0): 3.22 µM

## O=S(=O)(ON(c1ccccc1)S(=O)(=O)c1ccccc1)c1ccccc1
  AbsAC1 (concentration giving Tm-shift threshold 1.0): 14 µM

## NS(=O)(=O)c1ccc(NC(=O)Nc2cccc(Cl)c2)cc1
  AbsAC1 (concentration giving Tm-shift threshold 1.0): 16.8 µM

## O=C(O)c1ccc(Cl)c(S(=O)(=O)Nc2ccc(S(=O)(=O)N3CCCC3)cc2)c1
  AbsAC1 (concentration giving Tm-shift threshold 1.0): 14.1 µM

## CCOC(=O)c1sc(N2C(=O)C(O)=C(C(=O)c3ccco3)C2c2ccc([N+](=O)[O-])cc2)nc1C (centres undefined)
  AbsAC1 (concentration giving Tm-shift threshold 1.0): 5.28 µM

## O=C(Nc1ccccc1)N1C[C@H]2[C@@H](c3ccccc31)[C@@H](CO)N2C(=O)c1ccncc1
  AbsAC1 (concentration giving Tm-shift threshold 1.0): 41.2 µM

## CCc1ccc(N2CC(C(=O)OCC(=O)Nc3ccc(C(C)=O)cc3)CC2=O)cc1 (centres undefined)
  AbsAC1 (concentration giving Tm-shift threshold 1.0): 17.7 µM

## COc1cc(NC(=O)c2ccc3c(c2)OCCO3)ccc1NC(=O)c1cccs1
  AbsAC1 (concentration giving Tm-shift threshold 1.0): 3.85 µM

## C[C@@H]1CN([C@H](C)CO)S(=O)(=O)c2ccc(-c3ccc(F)cc3)cc2O[C@@H]1CN(C)C(=O)Nc1ccccc1F
  AbsAC1 (concentration giving Tm-shift threshold 1.0): 22.1 µM

## Cc1nc2ccccc2c2oc(C(=O)NCc3ccc4c(c3)OCO4)cc12
  AbsAC1 (concentration giving Tm-shift threshold 1.0): 2.57 µM

## O=C(Nc1nccs1)c1ccc(S(=O)(=O)NCc2cccs2)cc1
  AbsAC1 (concentration giving Tm-shift threshold 1.0): 11.1 µM

## Cc1[nH]c2ccccc2c1/C=N/NC(=O)c1cccc(F)c1
  AbsAC1 (concentration giving Tm-shift threshold 1.0): 9.79 µM

## COC12CC(=O)C(C(C)=O)=C(O)C1(C)c1c(O)c(C)c(O)c(C(C)=O)c1O2 (centres undefined)
  AbsAC1 (concentration giving Tm-shift threshold 1.0): 6.77 µM

## COC(=O)CN1C(=S)N(c2ccc(F)cc2)C(=O)C1CC(=O)Nc1ccccc1 (centres undefined)
  AbsAC1 (concentration giving Tm-shift threshold 1.0): 16.1 µM

## N#Cc1c(-c2ccccc2)nc(-c2ccncc2)[nH]c1=O
  AbsAC1 (concentration giving Tm-shift threshold 1.0): 30.3 µM

## C[C@H](CO)N1C[C@H](C)[C@@H](CN(C)C(=O)C2CC2)OCc2ccccc2-c2ccccc2C1=O
  AbsAC1 (concentration giving Tm-shift threshold 1.0): 35.4 µM

## Cc1cc(C)n(-c2ccc(C(=O)Nc3ccc(S(=O)(=O)N(C)C)cc3)cc2)n1
  AbsAC1 (concentration giving Tm-shift threshold 1.0): 9.32 µM

## COc1ccc(-c2cn(CC[C@H]3CC[C@H](NC(=O)Nc4ccc(F)cc4)[C@@H](CO)O3)nn2)cc1
  AbsAC1 (concentration giving Tm-shift threshold 1.0): 18 µM

## Clc1ccc(Nc2ccc(NCc3ccccc3)nn2)cc1
  AbsAC1 (concentration giving Tm-shift threshold 1.0): 2.73 µM

## O=C(O)c1ccc(NC(=O)c2cccc(S(=O)(=O)Nc3ccc(C(=O)O)cc3)c2)cc1
  AbsAC1 (concentration giving Tm-shift threshold 1.0): > 5 µM (inactive)

## C/C=C/c1ccc2c(c1)O[C@@H](CN(C)C(=O)Nc1ccc(F)cc1)[C@@H](C)CN([C@H](C)CO)S2(=O)=O
  AbsAC1 (concentration giving Tm-shift threshold 1.0): 14.8 µM

## COc1cc(NS(=O)(=O)c2ccc(NS(=O)(=O)c3ccc(C)cc3)cc2)nc(OC)n1
  AbsAC1 (concentration giving Tm-shift threshold 1.0): 3.69 µM

## COc1cc(/C=C2/S/C(=N/S(=O)(=O)Cc3ccccc3)NC2=O)c([N+](=O)[O-])cc1OC
  AbsAC1 (concentration giving Tm-shift threshold 1.0): 3.72 µM

## CC(=O)Nc1ccc(S(=O)(=O)Nc2nc3ccc([N+](=O)[O-])cc3s2)cc1
  AbsAC1 (concentration giving Tm-shift threshold 1.0): 23 µM

## COc1nsnc1NS(=O)(=O)c1ccc(NC(=S)NC(=O)c2cccnc2)cc1
  AbsAC1 (concentration giving Tm-shift threshold 1.0): 8.95 µM

## CC(C)c1c(C(=O)N/N=C/c2c[nH]c3ccccc23)nnn1-c1nonc1N
  AbsAC1 (concentration giving Tm-shift threshold 1.0): 1.67 µM

## CSc1nc2nc(Cl)c(Cl)nc2[nH]1
  AbsAC1 (concentration giving Tm-shift threshold 1.0): > 38 µM (inactive)

## S=C(NCCN1CCOCC1)Nc1ccc(-c2nc3ccccc3[nH]2)cc1
  AbsAC1 (concentration giving Tm-shift threshold 1.0): 7.5 µM

## COC(=O)C[C@H]1CC[C@@H]2[C@@H](COc3ccc(NC(=O)Nc4cccc(C#N)c4)cc3C(=O)N2C)O1
  AbsAC1 (concentration giving Tm-shift threshold 1.0): 7.79 µM

## COc1ccc(NC(=O)c2[nH]ncc2[N+](=O)[O-])cc1
  AbsAC1 (concentration giving Tm-shift threshold 1.0): 17.9 µM

## CO[C@@H](CN(C)S(=O)(=O)c1ccc(Cl)cc1)[C@@H](C)CN([C@H](C)CO)S(=O)(=O)c1cccc(Cl)c1
  AbsAC1 (concentration giving Tm-shift threshold 1.0): 10.7 µM

## COc1cccc(S(=O)(=O)N2C[C@@H](O)COC[C@@H]3O[C@@H](CC(=O)Nc4ccccc4)CC[C@H]32)c1
  AbsAC1 (concentration giving Tm-shift threshold 1.0): 3.38 µM

## COc1ccc(NC(=O)N(C)C[C@@H]2Oc3ccc(NC(=O)Cc4ccccc4)cc3C(=O)N([C@H](C)CO)C[C@H]2C)cc1
  AbsAC1 (concentration giving Tm-shift threshold 1.0): 39.8 µM

## NC(=NCCc1c[nH]c2ccccc12)NS(=O)(=O)c1ccc(F)cc1
  AbsAC1 (concentration giving Tm-shift threshold 1.0): 6.63 µM

## O=C(C[C@H]1CC[C@H]2[C@@H](COC[C@H](O)CN2Cc2ccccc2)O1)NCCc1ccccc1
  AbsAC1 (concentration giving Tm-shift threshold 1.0): > 38 µM (inactive)

## CN1C(=O)c2cc(NC(=O)c3cccc(F)c3)ccc2OC[C@H]2O[C@@H](CC(=O)NCc3ccccc3)CC[C@H]21
  AbsAC1 (concentration giving Tm-shift threshold 1.0): 3.24 µM

## O=C(N/N=C/c1c[nH]c2ccccc12)c1ccc(O)c(O)c1
  AbsAC1 (concentration giving Tm-shift threshold 1.0): 3.74 µM
